According to US10975078B2, “Fused indazole pyridone compounds as antivirals” (priority 2017, dated 2021):

tested on: HBsAg secretion, HepG2-Clone42 cells (Tet-inducible HBV-expressing, HBV ayw strain); assay: HBsAg assay (HBsAg ELISA, secreted HBV sAg from HepG2-Clone42 cells); type: cell-based; details: Hepatitis B virus, read-out: HBsAg (nM), EC50 = concentration at which HBsAg secretion was reduced 50% compared to DMSO control
Method: HepG2-Clone42, a Tet-inducible HBV-expressing cell line with a stably integrated 1.3 mer copy of the HBV ayw strain, was generated based on the Tet-inducible HepAD38 cell line with slight modifications. Ladner S K, et al., Antimicrobial Agents and Chemotherapy. 41(8):1715-1720 (1997). HepG2-Clone42 cells were cultured in DMEM/F-12+Glutamax™ (Life Technologies, Carlsbad, Calif., USA), supplemented with 10% fetal bovine serum (Life Technologies), G-418 (Corning, Manassas, Va., USA) at a final concentration of 0.5 mg/mL, and 5 μg/mL Doxycycline (Sigma, St. Louis, Mo., USA) and maintained in 5% CO2 at 37° C.
HepG2-Clone42 cells were seeded into black clear-bottom 96-well plates at a concentration of 6.0×10^4 cells/well. 24 hours post-seeding, the cells were treated with 200 μl/well of media containing five-fold serial dilutions of compounds in DMSO. DMSO alone was used as the no drug control. The final DMSO concentration in all wells was 0.5%.
The HBsAg ELISA kit (Alpha Diagnostic International, San Antonio, Tex., USE, Catalog #4110) was used to determine the level (semi-quantitative) of secreted HBV sAg. The HBSAg ELISA assay was performed following the manufacturer's protocol as described.
Step 1. Pipet 100 μL each of compound or DMSO treated samples into HBsAg ELISA plates. Seal plates and incubate at room temp for 60 minutes.
Step 2. Aspirate samples and wash three times with Wash Buffer. Dispense 100 μL of antibody-HRP conjugate to each well. Incubate at room temp for 30 minutes.
Step 3. Aspirate samples and wash three times with Wash Buffer. Add 100 μL of TMB Substrate to all wells and incubate 15 minutes at room temp.
Step 4. Dispense 100 μL of Stop Solution to each well. Measure absorbance of ELISA plate at 450 nm.
Dose-response curves were generated and the EC50 value was defined as the compound concentration at which HBsAg secretion was reduced 50% compared to the DMSO control.
EC50 values were determined as follows:
Determine the percent of HBsAg secretion inhibition. Calculate the percent inhibition on of HBsAg secretion inhibition using the following equation: […]
where XC is the absorbance signal from compound-treated well; MB is average absorbance signal (background signal) for column 12 (no cells+HBsAg ELISA sample buffer) and MD is average absorbance signal from DMSO-treated wells. Then calculate EC50 values by non-linear regression using a four parameter curve logistic equation.
The curve fit model employed is XLFit Dose Response One Site Model 204: y=(A+((B−A)/(1+(10^((C−x)*D))))) where A is the minimum y value, B is the maximum y value, C is the log EC50 value, and D is the slope factor. In the following table+≥100 nM; 100 nM>++≥1 nM; 1 nM>+++

SMILES	EC50 [nM]
CCOC(=O)c1cn2c(cc1=O)-c1c3cccc(OCCCOC)c3nn1CC2C(C)(C)C (racemic) [Example 2.1i, ethyl 6-(tert-butyl)-10-(3-methoxypropoxy)-2-oxo-6,7-dihydro-2H-pyrido[2′,1′:3,4]pyrazino[1,2-b]indazole-3-carboxylate]	1 to 100
COCCOCCOc1cccc2c3n(nc12)CC(C(C)(C)C)n1cc(C(=O)O)c(=O)cc1-3 (racemic) [Example 2.12, 6-(tert-butyl)-10-(2-(2-methoxyethoxy)ethoxy)-2-oxo-6,7-dihydro-2H-pyrido[2′,1′:3,4]pyrazino[1,2-b]indazole-3-carboxylic Acid]	1 to 100
CC(C)(C)C1Cn2nc3c(OC4CCOCC4)cccc3c2-c2cc(=O)c(C(=O)O)cn21 (racemic) [Example 2.38, 6-(tert-butyl)-2-oxo-10-((tetrahydro-2H-pyran-4-yl)oxy)-6,7-dihydro-2H-pyrido[2′,1′:3,4]pyrazino[1,2-b]indazole-3-carboxylic Acid]	1 to 100
CC(C)(C)C1Cn2nc3c(OC4CCC4)cccc3c2-c2cc(=O)c(C(=O)O)cn21 (racemic) [Example 2.29, 6-(tert-butyl)-10-cyclobutoxy-2-oxo-6,7-dihydro-2H-pyrido[2′,1′:3,4]pyrazino[1,2-b]indazole-3-carboxylic Acid]	< 1
CC(C)(C)C1Cn2nc3c(OCCCO)cccc3c2-c2cc(=O)c(C(=O)O)cn21 (racemic) [Example 2.17, 6-(tert-butyl)-10-(3-hydroxypropoxy)-2-oxo-6,7-dihydro-2H-pyrido[2′,1′:3,4]pyrazino[1,2-b]indazole-3-carboxylic Acid]	< 1
CC(C)(C)C1Cn2nc3c(OCC(=O)O)cccc3c2-c2cc(=O)c(C(=O)O)cn21 (racemic) [Example 2.23, 6-(tert-butyl)-10-(carboxymethoxy)-2-oxo-6,7-dihydro-2H-pyrido[2′,1′:3,4]pyrazino[1,2-b]indazole-3-carboxylic Acid]	1 to 100
CC[C@H](C)COc1cccc2c3n(nc12)CC(C(C)(C)C)n1cc(C(=O)O)c(=O)cc1-3 (mixture of isomers) [Example 2.6, 6-(tert-butyl)-10-((S)-2-methylbutoxy)-2-oxo-6,7-dihydro-2H-pyrido[2′,1′:3,4]pyrazino[1,2-b]indazole-3-carboxylic Acid]	< 1
CC(C)(C)C1Cn2nc3c(OCCF)cccc3c2-c2cc(=O)c(C(=O)O)cn21 (racemic) [Example 2.41, 6-(tert-butyl)-10-(2-fluoroethoxy)-2-oxo-6,7-dihydro-2H-pyrido[2′,1′:3,4]pyrazino[1,2-b]indazole-3-carboxylic Acid]	< 1
CC(C)(C)C1Cn2nc3c(OC4COC4)cccc3c2-c2cc(=O)c(C(=O)O)cn21 (racemic) [Example 2.26, 6-(tert-butyl)-10-(oxetan-3-yloxy)-2-oxo-6,7-dihydro-2H-pyrido[2′,1′:3,4]pyrazino[1,2-b]indazole-3-carboxylic Acid]	1 to 100
CC(C)(C)C1Cn2nc3c(OCC4CC(F)(F)C4)cccc3c2-c2cc(=O)c(C(=O)O)cn21 (racemic) [Example 2.39, 6-(tert-butyl)-10-((3,3-difluorocyclobutyl)methoxy)-2-oxo-6,7-dihydro-2H-pyrido[2′,1′:3,4]pyrazino[1,2-b]indazole-3-carboxylic Acid]	< 1

same assay, conditions: read-out: HBsAg, EC50 = concentration at which HBsAg secretion was reduced 50% compared to DMSO control

SMILES	EC50 [nM]
COCCOc1cccc2c3n(nc12)C1CCC(C)(C)C1n1cc(C(=O)O)c(=O)cc1-3 (single isomer, unassigned) [Example 6.2-II, 12-(2-methoxyethoxy)-3,3-dimethyl-7-oxo-2,3,3a,14a-tetrahydro-1H,7H-cyclopenta[5,6]pyrido[2′,1′:3,4]pyrazino[1,2-b]indazole-6-carboxylic Acid]	< 1
COCC(C)(C)C1Cn2nc3c(OC)cccc3c2-c2cc(=O)c(C(=O)O)cn21 (single isomer, unassigned) [Example 4.1-II, 10-methoxy-6-(1-methoxy-2-methylpropan-2-yl)-2-oxo-6,7-dihydro-2H-pyrido[2′,1′:3,4]pyrazino[1,2-b]indazole-3-carboxylic Acid]	> 100
COc1cccc2c3n(nc12)CC(C(C)(C)C)n1cc(C(=O)O)c(=O)cc1-3 (single isomer, unassigned) [Example 1.1-I, 6-(tert-butyl)-10-methoxy-2-oxo-6,7-dihydro-2H-pyrido[2′,1′:3,4]pyrazino[1,2-b]indazole-3-carboxylic acid]	< 1
COc1ccc2c3n(nc2c1)CC(C(C)(C)C)n1cc(C(=O)O)c(=O)cc1-3 (single isomer, unassigned) [Example 1.2-II, 6-(tert-butyl)-11-methoxy-2-oxo-6,7-dihydro-2H-pyrido[2′,1′:3,4]pyrazino[1,2-b]indazole-3-carboxylic acid]	1 to 100
COc1cccc2c3n(nc12)CC(C(C)(C)CO)n1cc(C(=O)O)c(=O)cc1-3 (single isomer, unassigned) [Example 3.1-II, 6-(1-hydroxy-2-methylpropan-2-yl)-10-methoxy-2-oxo-6,7-dihydro-2H-pyrido[2′,1′:3,4]pyrazino[1,2-b]indazole-3-carboxylic Acid]	1 to 100
COCCCOc1cccc2c3n(nc12)CC(C(C)(C)COC)n1cc(C(=O)O)c(=O)cc1-3 (single isomer, unassigned) [Example 7.1-II, 6-(1-methoxy-2-methylpropan-2-yl)-10-(3-methoxypropoxy)-2-oxo-6,7-dihydro-2H-pyrido[2′,1′:3,4]pyrazino[1,2-b]indazole-3-carboxylic Acid]	< 1
COc1cccc2c3n(nc12)CC(C(C)(C)CO)n1cc(C(=O)O)c(=O)cc1-3 (single isomer, unassigned) [Example 3.1-I, 6-(1-hydroxy-2-methylpropan-2-yl)-10-methoxy-2-oxo-6,7-dihydro-2H-pyrido[2′,1′:3,4]pyrazino[1,2-b]indazole-3-carboxylic Acid]	> 100
COCCCOc1cccc2c3n(nc12)CC(C(C)(C)COC)n1cc(C(=O)O)c(=O)cc1-3 (single isomer, unassigned) [Example 7.1-I, 6-(1-methoxy-2-methylpropan-2-yl)-10-(3-methoxypropoxy)-2-oxo-6,7-dihydro-2H-pyrido[2′,1′:3,4]pyrazino[1,2-b]indazole-3-carboxylic Acid]	> 100
COCC(C)(C)C1Cn2nc3c(OC)cccc3c2-c2cc(=O)c(C(=O)O)cn21 (single isomer, unassigned) [Example 4.1-I, 10-methoxy-6-(1-methoxy-2-methylpropan-2-yl)-2-oxo-6,7-dihydro-2H-pyrido[2′,1′:3,4]pyrazino[1,2-b]indazole-3-carboxylic Acid]	< 1
COc1cccc2c3n(nc12)CC(C(C)(C)C)n1cc(C(=O)O)c(=O)cc1-3 (single isomer, unassigned) [Example 1.1-II, 6-(tert-butyl)-10-methoxy-2-oxo-6,7-dihydro-2H-pyrido[2′,1′:3,4]pyrazino[1,2-b]indazole-3-carboxylic acid]	> 100
COc1cccc2nn3c(c12)-c1cc(=O)c(C(=O)O)cn1C(C(C)(C)C)C3 (single isomer, unassigned) [Example 1.4-II, 6-(tert-butyl)-13-methoxy-2-oxo-6,7-dihydro-2H-pyrido[2′,1′:3,4]pyrazino[1,2-b]indazole-3-carboxylic acid]	1 to 100
CC(C)(C)C1Cn2nc3ccccc3c2-c2cc(=O)c(C(=O)O)cn21 (single isomer, unassigned) [Example 1.5-II, 6-(tert-butyl)-2-oxo-6,7-dihydro-2H-pyrido[2′,1′:3,4]pyrazino[1,2-b]indazole-3-carboxylic acid]	> 100
CC(C)Oc1cccc2c3n(nc12)CC(C(C)(C)C)n1cc(C(=O)O)c(=O)cc1-3 (single isomer, unassigned) [Example 2.47-II, 6-(tert-butyl)-10-isopropoxy-2-oxo-6,7-dihydro-2H-pyrido[2′,1′:3,4]pyrazino[1,2-b]indazole-3-carboxylic Acid]	< 1
